Measurements published in US8741892B2, “Compounds” (Boehringer Ingelheim International GmbH, priority 2011, dated 2014).

These molecules were tested against T1, human recombinant mGluR5 (Homo sapiens, UniProt P41594) (assay: positive modulation of mGluR5, calcium based FLIPR assay). Settings: HEK 293 cell line expressing human recombinant mGluR5; EC50 of the modulation from peak Ca fluorescence signal after glutamate at approx. 5% basal stimulation.
T1 construct: expressed in transfected cells; host or cells: HEK 293
T1 sequence (P41594 21-1212): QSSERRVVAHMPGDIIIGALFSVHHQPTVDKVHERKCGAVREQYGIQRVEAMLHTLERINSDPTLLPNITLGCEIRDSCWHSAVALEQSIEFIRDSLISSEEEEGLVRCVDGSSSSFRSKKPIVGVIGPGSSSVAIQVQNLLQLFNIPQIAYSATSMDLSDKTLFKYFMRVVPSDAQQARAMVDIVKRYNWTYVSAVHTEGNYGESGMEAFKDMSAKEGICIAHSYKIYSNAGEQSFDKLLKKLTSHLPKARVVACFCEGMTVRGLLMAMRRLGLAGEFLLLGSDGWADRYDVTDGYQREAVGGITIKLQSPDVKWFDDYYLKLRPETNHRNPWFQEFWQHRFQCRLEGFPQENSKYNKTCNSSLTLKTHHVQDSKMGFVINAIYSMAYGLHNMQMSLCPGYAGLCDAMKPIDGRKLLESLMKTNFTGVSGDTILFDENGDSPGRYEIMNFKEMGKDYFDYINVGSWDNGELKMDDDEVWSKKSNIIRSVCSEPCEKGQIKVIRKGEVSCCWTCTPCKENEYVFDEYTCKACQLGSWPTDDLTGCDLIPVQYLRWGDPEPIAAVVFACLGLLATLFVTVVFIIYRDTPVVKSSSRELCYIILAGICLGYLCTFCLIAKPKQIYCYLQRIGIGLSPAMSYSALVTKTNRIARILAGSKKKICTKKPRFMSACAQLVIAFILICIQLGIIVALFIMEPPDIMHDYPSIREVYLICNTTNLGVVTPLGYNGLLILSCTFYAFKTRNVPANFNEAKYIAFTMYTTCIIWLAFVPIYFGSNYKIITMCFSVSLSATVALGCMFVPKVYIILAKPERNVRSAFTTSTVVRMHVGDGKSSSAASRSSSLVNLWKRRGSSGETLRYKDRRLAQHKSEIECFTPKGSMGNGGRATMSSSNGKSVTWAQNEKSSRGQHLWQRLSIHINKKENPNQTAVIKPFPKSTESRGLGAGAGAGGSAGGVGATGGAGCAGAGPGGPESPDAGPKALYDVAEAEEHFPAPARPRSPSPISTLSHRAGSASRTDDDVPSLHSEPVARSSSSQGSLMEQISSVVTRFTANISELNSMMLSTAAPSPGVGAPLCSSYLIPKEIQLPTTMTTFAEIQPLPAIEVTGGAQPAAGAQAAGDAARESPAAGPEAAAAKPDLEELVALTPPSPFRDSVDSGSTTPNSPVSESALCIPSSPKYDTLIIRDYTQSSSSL
Protocol: The positive modulation of mGluR5 is measured in a HEK 293 cell line expressing human recombinant mGluR5 and is detected with calcium based FLIPR assay. The cells are cultured with DMEM supplemented with 10% FCS, 2 μg/mL tetracycline, 100 μg/mL hygromycin and 500 μg/mL geneticin. The cell culture media is exchanged for tetracycline-free cell culture media 3-7 days before the assay. One day before the assay the cell culture medium is exchanged to DMEM without glutamine and phenol red and supplemented with 10% FCS, 100 μg/mL hygromycin and 500 μg/mL geneticin. On the assay day, the medium of the subconfluent cultures is removed and the cells are detached by addition of 2.5 ml EDTA (0.02%) per 175 cm2 culture flask for 1 minute. The cells are resuspend in Ringer solution (140 mM NaCl, 5 mM KCl, 2.5 mM CaCl2, 1.5 mM MgCl2, 5 mM Glucose, 10 mM Hepes; adjusted to pH 7.4 with NaOH), pooled and Ringer solution added to adjust the volume to 50 mL. The cell suspension is centrifuged for […] at 1500 U/min (425 g). The supernatant is removed and the cells washed a second time with 50 ml fresh Ringer solution and centrifuged again as before. The supernatant is again removed and the pellet resuspended in Ringer solution to 1,000,000 cells/ml (1×10^6 cells/mL). The cells are plated onto BD BioCoat Poly-D-Lysine 384 well plates (20.000 cells/well; 20 μl/well). The lid covered plates are then incubated until use at 37° C./10% CO2. For dye loading, 20 μl of Calcium-4 assay kit solution (prepared according to the manufacturer's description in Ringer solution) are added to the cells and the plates are incubated for […] 37° C. and then […] at room temperature.
Controls, Compound Dilution and Assay Execution:
Each assay plate contained wells with “high” and “low” controls:
Low controls 1% DMSO/ringer solution+basal glutamate activation (defined as 100% CTL).
High controls 10 μM CDPPB+basal glutamate activation (defined as 200% CTL).
Test compounds are dissolved and diluted in DMSO to 100-fold the desired concentrations. In a second step, the compounds are diluted in Ringer solution such that the compounds are 4-fold more concentrated than the desired final assay concentration. The final DMSO concentration was 1%.
20 μl of each compound solution are then transferred to the assay plate and the Ca2+ kinetic is measured to determine any intrinsic compound activity. After 5 mM incubation in the FLIPR device, the second stimulation with 20 μl of glutamate in Ringer solution (glutamate concentration adjusted to approximately 5% basal stimulation of the maximal possible glutamate effect) is added and the kinetic Ca2+ response of the wells was measured for the modulation effect.
The peak height of the Ca release related fluorescence signal (9-66) is used for the EC50. The EC50 of the modulation is calculated over a nonlinear regression with GraphPad Prism (Table 1).

SMILES	EC50 [nM]
O=C(Cn1nc(-c2ccccc2)cc1-c1ccccc1)N1CCC(c2ncc(Cl)cn2)CC1 [Example 7.01.001, 2-(3,5-diphenyl-pyrazol-1-yl)-1-(4-(5-chloro-pyrimidin-2-yl)-1-piperidinyl)-ethanon]	1430
Cc1nc2c(o1)CN(C(=O)Cn1nc(-c3ccccc3)cc1-c1ccccc1)CC2 [Example 7.01.002]	592
Cc1csc(N2CCN(C(=O)Cn3nc(-c4ccccc4)cc3-c3ccccc3)CC2)n1 [Example 7.01.003]	1780
COc1ccc2c(c1)CN(C(=O)Cn1nc(-c3ccccc3)cc1-c1ccccc1)C2 [Example 7.01.004]	390
Cc1nc2c(s1)CN(C(=O)Cn1nc(-c3ccccc3)cc1-c1ccccc1)C2 [Example 7.01.005]	381
O=C(Cn1nc(-c2ccccc2)cc1-c1ccccc1)N1CCc2cn[nH]c2CC1 [Example 7.01.006]	870
COc1ccc2c(c1)CN(C(=O)Cn1nc(-c3ccccc3)cc1-c1ccccc1)CC2 [Example 7.01.007]	1540
COc1ccc2c(c1)CCN(C(=O)Cn1nc(-c3ccccc3)cc1-c1ccccc1)CC2 [Example 7.01.008]	1180
O=C(Cn1nc(-c2ccccc2)cc1-c1ccccc1)N1CCc2c(F)cccc2C1 [Example 7.01.009]	1540
O=C(Cn1nc(-c2ccccc2)cc1-c1ccccc1)N1CCc2cc(C(F)(F)F)ccc2C1 [Example 7.01.010]	695
COc1ccccc1N1CCN(C(=O)Cn2nc(-c3ccccc3)cc2-c2ccccc2)CC1=O [Example 7.01.011]	1970
C=CCNC(=O)Nc1nc2c(s1)CN(C(=O)Cn1nc(-c3ccccc3)cc1-c1ccccc1)CC2 [Example 7.01.012]	829
O=C(Cn1nc(-c2ccccc2)cc1-c1ccccc1)N1CCN(c2cccc(Br)c2)C(=O)C1 [Example 7.01.013]	617
O=C(Cn1nc(-c2ccccc2)cc1-c1ccccc1)N1CCN(c2ccccc2F)C(=O)C1 [Example 7.01.014]	463
COc1cccc2c1CCN(C(=O)Cn1nc(-c3ccccc3)cc1-c1ccccc1)C2 [Example 7.01.015]	1810
O=C(Cn1nc(-c2ccccc2)cc1-c1ccccc1)N1CCN(c2noc3ccccc23)CC1 [Example 7.01.016]	143
COc1ccc2c(c1)CCN(C(=O)Cn1nc(-c3ccccc3)cc1-c1ccccc1)C2 [Example 7.01.018]	538
O=C(Cn1nc(-c2ccccc2)cc1-c1ccccc1)N1CCN(c2ccc(F)cc2)C(=O)C1 [Example 7.01.019]	1660
COc1cccc(N2CCN(C(=O)Cn3nc(-c4ccccc4)cc3-c3ccccc3)CC2=O)c1 [Example 7.01.020]	258
CC(=O)Nc1nc2c(s1)CCN(C(=O)Cn1nc(-c3ccccc3)cc1-c1ccccc1)CC2 [Example 7.01.021]	1530

SMILES	EC50 [nM]
COC(=O)c1ccc2c(c1)CCN(C(=O)Cn1nc(-c3ccccc3)cc1-c1ccccc1)C2 [Example 7.01.022]	511
Nc1nc2c(s1)CCN(C(=O)Cn1nc(-c3ccccc3)cc1-c1ccccc1)CC2 [Example 7.01.023]	166
O=C(Cn1nc(-c2ccccc2)cc1-c1ccccc1)N1CCc2c(F)ccc(F)c2C1 [Example 7.01.024]	1160
CC1CN(C(=O)Cn2nc(-c3ccccc3)cc2-c2ccccc2)CC(C)N1C(=O)OCc1ccccc1 (stereo not drawn) [Example 7.01.025]	1870
O=C(Cn1nc(-c2ccccc2)cc1-c1ccccc1)N1CCc2ncnc(-c3ccccc3)c2CC1 [Example 7.01.026]	503
O=C(Cn1nc(-c2ccccc2)cc1-c1ccccc1)N1CCc2cc(F)ccc2C1 [Example 7.01.027]	1020
CC(C)NC(=O)Nc1nc2c(s1)CN(C(=O)Cn1nc(-c3ccccc3)cc1-c1ccccc1)CC2 [Example 7.01.028]	1300
CC(C)c1ncc2c(n1)CCN(C(=O)Cn1nc(-c3ccccc3)cc1-c1ccccc1)C2 [Example 7.01.029]	796
COC(=O)c1ccc2c(c1)CCN(C(=O)Cn1nc(-c3ccccc3)cc1-c1ccccc1)CC2 [Example 7.01.030]	484
N#Cc1ccc2c(c1)CN(C(=O)Cn1nc(-c3ccccc3)cc1-c1ccccc1)CC2 [Example 7.01.031]	1870
O=C(Cn1nc(-c2ccccc2)cc1-c1ccccc1)N1Cc2nc(-c3ccccc3)sc2C1 [Example 7.01.032]	710
Nc1nnc(C2CCN(C(=O)Cn3nc(-c4ccccc4)cc3-c3ccccc3)CC2)o1 [Example 7.01.033]	1530
O=C(Cn1nc(-c2ccccc2)cc1-c1ccccc1)N1CCN(c2cccc(F)c2)C(=O)C1 [Example 7.01.034]	398
COc1cccc(N2CCN(C(=O)Cn3nc(-c4ccccc4)cc3-c3ccccc3)CC2=O)c1 [Example 7.01.035]	205
Nc1ccc2c(c1)CCN(C(=O)Cn1nc(-c3ccccc3)cc1-c1ccccc1)CC2 [Example 7.01.036]	1320
O=C(Cn1nc(-c2ccccc2)cc1-c1ccccc1)N1CCN(c2nnc(C(F)(F)F)s2)CC1 [Example 7.01.037]	188
Cc1nc2c(s1)CN(C(=O)Cn1nc(-c3ccccc3)cc1-c1ccccc1)C2 [Example 7.01.038]	359
O=C(Cn1nc(-c2ccccc2)cc1-c1ccccc1)N1CCc2c(Cl)cccc2C1 [Example 7.01.039]	752
CCNC(=O)Nc1nc2c(s1)CN(C(=O)Cn1nc(-c3ccccc3)cc1-c1ccccc1)CC2 [Example 7.01.041]	1550
O=C(Cn1nc(-c2ccccc2)cc1-c1ccccc1)N1CCN(c2nnc(C(F)(F)F)s2)CC1 [Example 7.01.042]	285

SMILES	EC50 [nM]
O=C(Cn1nc(-c2ccccc2)cc1-c1ccccc1)N1CCN(c2nccs2)CC1 [Example 7.01.043]	40
O=C(Cn1nc(-c2ccccc2)cc1-c1ccccc1)N1CCC(c2nccs2)CC1 [Example 7.01.044]	1850
O=C(Cn1nc(-c2ccccc2)cc1-c1ccccc1)N1CCc2c(cccc2C(F)(F)F)C1 [Example 7.01.045]	689
N#Cc1ccc2c(c1)CCN(C(=O)Cn1nc(-c3ccccc3)cc1-c1ccccc1)C2 [Example 7.01.046]	1000
O=C(Cn1nc(-c2ccccc2)cc1-c1ccccc1)N1CCC(c2nnc(-c3ccc(F)cc3)o2)CC1 [Example 7.01.047]	789
O=C(Cn1nc(-c2ccccc2)cc1-c1ccccc1)N1CCN(c2nccc3sccc23)CC1 [Example 7.01.048]	573
O=C(Cn1nc(-c2ccccc2)cc1-c1ccccc1)N1CCN(c2nccc3occc23)CC1 [Example 7.01.049]	652
Cc1ccc(NC2CCN(C(=O)Cn3nc(-c4ccccc4)cc3-c3ccccc3)CC2)c(C)c1 [Example 7.01.051]	1440
Cc1cc(-c2cc(-c3ccccc3)n(CC(=O)N3CCc4cn[nH]c4CC3)n2)ccc1F [Example 7.01.052]	31
N#Cc1ccc(Cl)cc1NC1CCN(C(=O)Cn2nc(-c3ccccc3)cc2-c2ccccc2)CC1 [Example 7.01.053]	914
CCc1cc(-c2ccc(F)c(C)c2)nn1CC(=O)N1CCc2nc(OC)sc2CC1 [Example 7.01.054]	53
COCc1cc(-c2ccc(F)c(C)c2)nn1CC(=O)N1CCc2nc(C)sc2CC1 [Example 7.01.055]	53
COCc1cc(-c2ccc(F)c(C)c2)nn1CC(=O)N1CCc2nc(N)sc2CC1 [Example 7.01.056]	253
COCc1cc(-c2ccc(F)c(C)c2)nn1CC(=O)N1CCc2nc(C)oc2C1 [Example 7.01.057]	740
COCc1cc(-c2ccc(F)c(C)c2)nn1CC(=O)N1Cc2nc(C)sc2C1 [Example 7.01.058]	279
Cc1nc2c(s1)CCN(C(=O)Cn1nc(-c3ccc(F)c(C)c3)cc1C)CC2 [Example 7.01.059]	32
Cc1cc(-c2cc(C)n(CC(=O)N3CCc4nc(N)sc4CC3)n2)ccc1F [Example 7.01.060]	101
Cc1nc2c(o1)CN(C(=O)Cn1nc(-c3ccc(F)c(C)c3)cc1C)CC2 [Example 7.01.061]	163
Cc1nc2c(s1)CN(C(=O)Cn1nc(-c3ccc(F)c(C)c3)cc1C)C2 [Example 7.01.062]	242
Cc1nnc(N2CCN(C(=O)Cn3nc(-c4ccc(F)c(C)c4)cc3C)CC2)o1 [Example 7.01.063]	334
